# In patent US6737383B1, “Herbicidal oxadiazolidines” (priority 1999, dated 2004):
# Assays:
# bedstraw = test: Test B pre/postemergence bedstraw; assay type: in vivo, Galium aparine
# Outline: (§1)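 Test chemicals in a non-phytotoxic solvent mixture with surfactant were sprayed preemergence onto planted seeds and postemergence onto plants 2 to 18 cm tall (1- to 4-leaf stage). After twelve to sixteen days in a greenhouse, injury was visually rated against untreated controls from 0 (no effect) to 10 (complete control).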
# crabgrass = test: Test B pre/postemergence crabgrass; assay type: in vivo, Digitaria sanguinalis
# Outline: as §1
# corn = test: Test B pre/postemergence corn; assay type: in vivo, Zea mays
# Outline: as §1
# surinam grass = test: Test B pre/postemergence surinam grass; assay type: in vivo, Brachiaria decumbens
# Outline: as §1
# [1] = Postemergence, Rate 62 g/ha, scale 0 to 10, 0 is no effect, 10 is complete control
# [2] = Postemergence, Rate 250 g/ha, scale 0 to 10, 0 no effect, 10 complete control
# [3] = Preemergence, Rate 62 g/ha, scale 0 to 10 (0 no effect, 10 complete control)
# [4] = Preemergence, Rate 125 g/ha, scale 0 to 10 (0 no effect, 10 complete control)
# [5] = Preemergence, Rate 250 g/ha, scale of 0 to 10 where 0 is no effect and 10 is complete control
# [6] = Preemergence, Rate 500 g/ha, scale 0 (no effect) to 10 (complete control)
# [7] = Rate 125 g/ha, Postemergence, scale 0 to 10, 0 no effect, 10 complete control
# [8] = Rate 500 g/ha, Postemergence, scale 0 to 10, 0 no effect, 10 complete control
# [9] = Rate 500 g/ha, Postemergence, scale of 0 to 10 where 0 is no effect and 10 is complete control
SMILES,Bedstraw plant response rating (bedstraw; [1]),Bedstraw plant response rating (bedstraw; [2]),Bedstraw plant response rating (bedstraw; [3]),"Plant response rating, Bedstraw (bedstraw; [4])","Plant response rating, Bedstraw (bedstraw; [5])",Bedstraw plant response rating (bedstraw; [6]),Bedstraw plant response rating (bedstraw; [7]),Crabgrass plant response rating (crabgrass; [1]),Crabgrass plant response rating (crabgrass; [2]),Crabgrass plant response rating (crabgrass; [3]),"Plant response rating, Crabgrass (crabgrass; [4])","Plant response rating, Crabgrass (crabgrass; [5])",Crabgrass plant response rating (crabgrass; [6]),Crabgrass plant response rating (crabgrass; [7]),Crabgrass plant response rating (crabgrass; [8]),Corn plant response rating (corn; [1]),Corn plant response rating (corn; [2]),Corn plant response rating (corn; [3]),"Plant response rating, Corn (corn; [4])","Plant response rating, Corn (corn; [5])",also measured
COc1cccc(C)c1-n1c(=O)on(C(=O)N(c2ccc(F)cc2)C(C)C)c1=O [Compound 62],0,2,0,0,0,4,0,0,0,2,3,6,9,0,7,0,0,0,0,0,"Corn plant response rating (corn; [6]): 0; Corn plant response rating (corn; [7]): 0; Corn plant response rating (corn; [8]): 0; B. signalgrass plant response rating (surinam grass; [1]): 0; B. signalgrass plant response rating (surinam grass; [2]): 2; B. signalgrass plant response rating (surinam grass; [3]): 0; Plant response rating, B. signalgrass (surinam grass; [4]): 0; Plant response rating, B. signalgrass (surinam grass; [5]): 0; B. signalgrass plant response rating (surinam grass; [6]): 0; B. signalgrass plant response rating (surinam grass; [7]): 0; B. signalgrass plant response rating (surinam grass; [9]): 4"
CCN(Cc1ccccc1)C(=O)n1oc(=O)n(-c2ccccc2C)c1=O [Compound 71],0,0,0,0,0,0,0,0,0,0,0,0,0,0,0,0,0,0,0,0,"Bedstraw plant response rating (bedstraw; [8]): 0; Corn plant response rating (corn; [6]): 0; Corn plant response rating (corn; [7]): 0; Corn plant response rating (corn; [8]): 0; B. signalgrass plant response rating (surinam grass; [1]): 0; B. signalgrass plant response rating (surinam grass; [2]): 0; B. signalgrass plant response rating (surinam grass; [3]): 0; Plant response rating, B. signalgrass (surinam grass; [4]): 0; Plant response rating, B. signalgrass (surinam grass; [5]): 0; B. signalgrass plant response rating (surinam grass; [6]): 0; B. signalgrass plant response rating (surinam grass; [7]): 0; B. signalgrass plant response rating (surinam grass; [9]): 0"
COc1cccc(C)c1-n1c(=O)on(C(=O)N(c2ccccc2)C(C)C)c1=O [Compound 73],0,7,0,0,0,0,0,0,2,1,5,8,9,0,6,0,0,0,0,0,"Bedstraw plant response rating (bedstraw; [8]): 7; Corn plant response rating (corn; [6]): 0; Corn plant response rating (corn; [7]): 0; Corn plant response rating (corn; [8]): 0; B. signalgrass plant response rating (surinam grass; [1]): 0; B. signalgrass plant response rating (surinam grass; [2]): 0; B. signalgrass plant response rating (surinam grass; [3]): 0; Plant response rating, B. signalgrass (surinam grass; [4]): 0; Plant response rating, B. signalgrass (surinam grass; [5]): 0; B. signalgrass plant response rating (surinam grass; [6]): 0; B. signalgrass plant response rating (surinam grass; [7]): 0; B. signalgrass plant response rating (surinam grass; [9]): 3"
Cc1nn(C)c(C)c1-n1c(=O)on(C(=O)N(c2ccc(F)cc2F)C(C)C)c1=O [Compound 76],0,2,0,0,0,0,0,2,8,3,4,8,8,4,9,0,0,0,0,2,"Bedstraw plant response rating (bedstraw; [8]): 4; Corn plant response rating (corn; [6]): 4; Corn plant response rating (corn; [7]): 0; Corn plant response rating (corn; [8]): 0; B. signalgrass plant response rating (surinam grass; [1]): 0; B. signalgrass plant response rating (surinam grass; [2]): 5; B. signalgrass plant response rating (surinam grass; [3]): 0; Plant response rating, B. signalgrass (surinam grass; [4]): 0; Plant response rating, B. signalgrass (surinam grass; [5]): 2; B. signalgrass plant response rating (surinam grass; [6]): 8; B. signalgrass plant response rating (surinam grass; [7]): 0; B. signalgrass plant response rating (surinam grass; [9]): 9"
CN(C(=O)n1oc(=O)n(Cc2cccs2)c1=O)c1ccccc1 [Compound 83],0,0,0,0,0,0,0,0,0,0,0,0,0,0,0,0,0,0,0,0,"Bedstraw plant response rating (bedstraw; [8]): 0; Corn plant response rating (corn; [6]): 0; Corn plant response rating (corn; [7]): 0; Corn plant response rating (corn; [8]): 0; B. signalgrass plant response rating (surinam grass; [1]): 0; B. signalgrass plant response rating (surinam grass; [2]): 0; B. signalgrass plant response rating (surinam grass; [3]): 0; Plant response rating, B. signalgrass (surinam grass; [4]): 0; Plant response rating, B. signalgrass (surinam grass; [5]): 0; B. signalgrass plant response rating (surinam grass; [6]): 0; B. signalgrass plant response rating (surinam grass; [7]): 0; B. signalgrass plant response rating (surinam grass; [9]): 0"
